Reference: patent US11890287B2, “Therapeutic compounds and compositions for treating social disorders and substance use disorders” (Kinoxis Therapeutics Pty Ltd, priority 2015, dated 2024)
Values joined by “and” are separate entries in the source; they are usually repeats but may differ in a detail not shown here. Equal entries are not always repeated. “Also recorded” adds a separate entry of the source.

Tests used:
rhesus monkeys = assay: Intravenous cocaine self-administration; format: in vivo, rhesus monkey; details: 3 mg/kg orally
human V1a receptor = human V1a receptor (Homo sapiens, UniProt P37288); assay: Orthosteric binding against [3H]AVP
human V1a receptor, sequence (P37288 whole entry): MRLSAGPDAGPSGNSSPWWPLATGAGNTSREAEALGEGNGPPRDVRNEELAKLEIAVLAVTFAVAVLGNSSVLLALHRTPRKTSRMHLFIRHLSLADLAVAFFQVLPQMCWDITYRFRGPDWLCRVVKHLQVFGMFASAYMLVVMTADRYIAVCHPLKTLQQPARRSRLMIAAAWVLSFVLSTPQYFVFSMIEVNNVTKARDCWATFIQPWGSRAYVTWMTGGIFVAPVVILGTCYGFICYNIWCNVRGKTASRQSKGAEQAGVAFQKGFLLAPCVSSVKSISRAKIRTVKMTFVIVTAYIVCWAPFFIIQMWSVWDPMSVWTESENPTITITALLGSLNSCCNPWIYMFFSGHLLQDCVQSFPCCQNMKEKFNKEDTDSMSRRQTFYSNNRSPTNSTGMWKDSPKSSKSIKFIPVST

Sprague Dawley rats = assay: Acute toxicity, single intravenous bolus dose of 50 mg/kg, one week dose range finding study; format: in vivo
Experimental: The acute toxicity of SOC-1 test items was assessed in Sprague Dawley rats following intravenous administration of a single bolus dose of 50 mg/kg. A total of n=3 adult female rats were treated and then observed for 7 days prior to termination on Study Day 8 without necropsy.
The design of this acute single dose toxicity study in rats was adapted from OECD Guideline for Testing of Chemicals No. 420 Acute Oral Toxicity—Fixed Dose Procedure’ 2001 (3) and the test facility Standard Operating Procedure SP_T002 ‘Dose Range Finding Study in Rodents’. The study procedures were conducted as outlined below and according to related test facility Standard Operating Procedures.
Briefly, on completion of the acclimation period the study was commenced with administration of the treatment on Study Day 1. […] Body weights were also collected daily. On Study Day 8 the surviving animals were culled without necropsy.
The 5 mg/mL test item treatments were administered as a bolus intravenous injection in a dose volume of 10 mL/kg on Study Day 1 with restraint on conscious animals.
Morbidity and mortality observations were recorded daily during the acclimation period and on Day 8, and twice daily from Day 1 through Day 7.
Clinical observations were conducted at least once during the acclimation period. Clinical observations were conducted at least once daily from Day 1 up to and including the day prior to termination. On the day of treatment the animals were monitored continuously for the first 30 minutes post-treatment with formal observations made at 30 minutes, 1 hour and 4 hours post-treatment.
The clinical observations included examination of animals for changes in skin and fur, eyes and mucous membranes, respiratory and circulatory function, gait and posture, behaviour, tremors or convulsions and any other abnormal findings.
The clinical observations also included daily examination of the tail for any injection site reaction (for example, erythema or oedema).
Body weight was recorded once during the acclimation period and daily from the time of treatment on Day 1 to Day 8.

rats [1] = assay: In vivo toxicity/adverse events; design: species or system rat
Experimental: However, the rats were not ataxic or comatose, they were simply in a relaxed quiescent state. […] Effects on body temperature and other behaviours are not blocked by pre-treatment with the vasopressin V1A receptor antagonist SR49059 (10 mg/kg). […] The data in these two studies was gathered with DataSciences International biotelemetry system.

male Hooded Wistar rats = assay: Social interaction test; format: in vivo, rat
Experimental: The primary phenotypic effect was a massive increase in a behaviour called “adjacent lying” where unfamiliar rats come together in passive social contact for prolonged periods. […] (n=6-8 pairs per condition, 20 minute test). Remarkably the effects of SOC-1 outlive its acute administration and a prolonged upregulation of social behaviour (measured as time spent in close proximity) in rats given only 3 doses of SOC-1, 2 weeks previously, was observed (FIG. 1, image (B)).

V1aR = biological target: T1, V1aR (Homo sapiens, UniProt P37288); assay: IP1 signalling on V1aR HEK cells; format: cell-based
T1 construct: expressed in transfected cells; host or cells: HEK cells
T1 sequence (P37288 whole entry): as above

V2 = V2 (Homo sapiens, UniProt P30518); assay: Orthosteric binding, AVP receptors
V2, sequence (P30518 whole entry): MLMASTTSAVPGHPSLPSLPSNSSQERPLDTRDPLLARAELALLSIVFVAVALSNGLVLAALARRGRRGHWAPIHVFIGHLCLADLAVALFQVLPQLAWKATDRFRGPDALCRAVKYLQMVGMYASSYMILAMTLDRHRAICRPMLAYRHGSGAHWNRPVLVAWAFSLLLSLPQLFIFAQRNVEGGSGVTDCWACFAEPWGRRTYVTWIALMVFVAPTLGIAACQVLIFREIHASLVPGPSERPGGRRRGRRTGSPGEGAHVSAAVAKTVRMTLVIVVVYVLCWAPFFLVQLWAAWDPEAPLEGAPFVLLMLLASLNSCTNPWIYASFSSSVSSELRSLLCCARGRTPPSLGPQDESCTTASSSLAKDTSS

rats [2] = assay: Non-social tests of anxiety (elevated plus maze, open field); format: in vivo, rat; details: acute dosing or residual long-term effect
male Sprague Dawley rats = assay: Methamphetamine-primed reinstatement; format: in vivo, rat
male Albino Wistar rats = assay: Social preference test (caged conspecific vs toy rat); format: in vivo; details: 5 mg/kg IP

## Cl.Cn1ncc2c1Nc1ccccc1NC2 [SOC-1]
Rhesus monkeys
  food consumption: without affecting food consumption
  intravenous cocaine self-administration relative to baseline levels: nearly halved
Human V1a receptor
  IC50: > 10 µM
Sprague Dawley rats; 50 mg/kg IV
  body weight findings: no body weight findings that were considered treatment related
  clinical findings post-dose on Study Day 1: mild piloerection and reduced activity levels
  injection site reactions: no findings of injection site reactions
  morbidity and mortality: no unscheduled deaths or findings of morbidity
  time to resolution of clinical findings post-dose: ≤ 4 h
  tolerability: tolerated
Sprague Dawley rats; 50 mg/kg IV in Hartman's solution
  vocalisation and flinch reactions at the time of dosing: not associated with similar reactions
Sprague Dawley rats; 50 mg/kg IV, Study Day 1
  Body Weight, mean ± SD: 224.30 ± 7.45 g
  Body weight, individual rats: 228.4 grams and 215.7 grams and 228.8 grams
Sprague Dawley rats; 50 mg/kg IV, Study Day 2
  Body Weight, mean ± SD: 223.07 ± 4.37 g
  Body weight, individual rats: 220.9 grams and 220.2 grams and 228.1 grams
Sprague Dawley rats; 50 mg/kg IV, Study Day 3
  Body Weight, mean ± SD: 226.87 ± 4.33 g
  Body weight, individual rats: 225.1 grams and 223.7 grams and 231.8 grams
Sprague Dawley rats; 50 mg/kg IV, Study Day 4
  Body Weight, mean ± SD: 223.03 ± 5.34 g
  Body weight, individual rats: 229.2 grams and 220.1 grams and 219.8 grams
Sprague Dawley rats; 50 mg/kg IV, Study Day 5
  Body Weight, mean ± SD: 222.77 ± 4.75 g
  Body weight, individual rats: 219.0 grams and 221.2 grams and 228.1 grams
Sprague Dawley rats; 50 mg/kg IV, Study Day 6
  Body Weight, mean ± SD: 223.80 ± 3.70 g
  Body weight, individual rats: 220.7 grams and 222.8 grams and 227.9 grams
Sprague Dawley rats; 50 mg/kg IV, Study Day 7
  Body Weight, mean ± SD: 226.60 ± 2.57 g
  Body weight, individual rats: 225.7 grams and 224.6 grams and 229.5 grams
Sprague Dawley rats; 50 mg/kg IV, Study Day 8
  Body Weight, mean ± SD: 228.03 ± 3.81 g
  Body weight, individual rats: 229.1 grams and 223.8 grams and 231.2 grams
Sprague Dawley rats; 50 mg/kg IV, n 3
  Hunched posture or gait- mild (incidence): 1
  No abnormalities detected: (incidence): 0
  Piloerection- mild (incidence): 1
  Reduced activity (incidence): 3
Rats [1]; 10-20 mg/kg IP
  locomotor activity: some mild inhibition of locomotor activity
Rats [1]; repeated dosing
  tolerability of repeated dosing (body weight, coat condition): without any apparent adverse effects
Male Hooded Wistar rats; 5 and 10 mg/kg IP, 20 minute test
  adjacent lying in the social interaction test: massive increase in adjacent lying
Male Hooded Wistar rats; most efficacious doses, adjacent lying
  pro-social effects compared with AVP, MDMA and WAY 267,464: most powerful pro-social effects by a considerable margin
Male Hooded Wistar rats; two weeks following treatment, 3 doses in total across 6 days
  proximity towards a novel conspecific (time spent within 1 body length): increased proximity towards a novel conspecific relative to controls
V1aR
  agonist or positive allosteric modulator activity at V1aR: not an agonist or positive allosteric modulator of V1aRs
  antagonist activity at V1aR: weak antagonist activity
V2
  affinity for the orthosteric binding site of V2: Nor does SOC-1 show any affinity
Rats [2]
  effect in non-social tests of anxiety: without effect
Male Sprague Dawley rats; 10 mg/kg, vs extinction day prior, p=0.147
  lever-pressing activity, SOC-1 on its own (SOC-1+vehicle): did not significantly alter lever-pressing activity
Male Sprague Dawley rats; 2.5 (p=0.006), 5 and 10 mg/kg (p<0.005) prior to methamphetamine prime
  locomotor activity across reinstatement sessions: significantly lower
Male Sprague Dawley rats; 2.5, 5 and 10 mg/kg IP, each p<0.005 vs vehicle
  active lever pressing produced by a methamphetamine prime: significantly reduced active lever pressing
Male Sprague Dawley rats; vs previous extinction session, p=0.472
  locomotor activity, sole administration of SOC-1: did not significantly change locomotor activity
Male Albino Wistar rats
  preference for the live rat over a toy rat: enhanced rats natural preference for an unfamiliar live rat; also recorded: significantly elevated preference for the live rat
